Here are results for 25 molecules from PubChem BioAssay (NCI).

Common to all, as to assay: growth of human tumour cells (NCI), 48 h
Assay [1] relates to OVCAR-5 ovarian.
The subject of assay [2] is K-562 leukemia.
The test system of assay [3] is HOP-62 NSCLC.
For assay [4], the system named is MOLT-4 leukemia.
The subject of assay [5] is TK-10 renal.
Assay [6] has as its system HCT-15 colon.
Assay [7] concerns M14 melanoma.
In assay [8] the test system is MCF7 breast.
In assay [9] the test system is NCI-H460 lung.
Assay [10] relates to T-47D breast.
Assay [11] relates to COLO 205 colon.

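Protocol summary: plate cells (96-well), add compound at 5 concentrations, incubate 48 h, interpolate endpoints linearly. The concentration for 50% growth inhibition is given as GI50. Definition used: TGI = concentration required for complete inhibition of growth.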 Where a SMILES comes first, the peptide text is derived from it.

With `CC(C)C1OC(=O)/C=C/C=C/C=C/C=C/C=C/CC(O)C(C)C(O)CC(O)CC(O)CC(O)CC(O)CC(O)CC(O)/C=C/C1C` (stereo not drawn), the TGI in [1], in assay [2], in assay [3], in assay [4], in assay [5] and in assay [6] was more than 100 µM throughout. Moreover, the TGI in assay [7], in assay [8] and in assay [9] was more than 100 µM in each case.
Regarding `C/C(N=Nc1nc2ccccc2[nH]1)=C1/C=CC=CN1O`, the TGI in [1], in assay [2], in [3], in assay [4], in assay [5] and in assay [6] was more than 100 µM each time. In addition, the TGI in assay [7], in assay [8], in assay [9], in assay [10] and in assay [11] was more than 100 µM in each case.
Turning to `COC(OC)C1OC(CO)C(n2cc(F)c(=O)[nH]c2=O)C1O` (stereo not drawn), the TGI in [1], in assay [2], in [3], in assay [4], in [5] and in assay [6] was more than 100 µM each time. The TGI in assay [7] is more than 100 µM; in assay [8], more than 100 µM; in assay [9], more than 100 µM; in assay [10] it was more than 100 µM; in [11], 28.5 µM.
In the case of `C1=CC(=[N+]2N=C(c3ccccc3)CC2c2ccccc2)C=CC1=C1SC(c2ccccc2)(c2ccccc2)c2ccccc21` (stereo not drawn), the TGI in [1], in assay [2], in assay [3], in assay [4], in [5] and in assay [6] was more than 100 µM each time. For the same molecule, the TGI in assay [7], in [8], in assay [9] and in assay [10] was more than 100 µM throughout.
Take `COc1cc2c(cc1OCCCCCCCCN1C(=O)c3cccc4cccc(c34)C1=O)N=C[C@@H]1CCCN1C2=O`: the TGI in assay [1] was 66.2 µM; in assay [2], 23.1 µM; in assay [3] it was more than 100 µM; in assay [4], 9.42 µM; in [5], more than 100 µM; in assay [6], 32.7 µM. Moreover, the TGI in assay [7] was more than 100 µM; in assay [8], 22.3 µM; in [9], 72 µM; in assay [10], more than 100 µM; in assay [11], 21.7 µM.
With `COC(CN(C=O)[C@@H](c1ccc(Cl)cc1)c1cc2ccccc2o1)OC`, the TGI in [1] is 29.8 µM; in [2], 53.6 µM; in [3], 43.5 µM; in assay [4], 40 µM; in assay [5] it was 33.4 µM; in assay [6], 32.8 µM. The TGI came to 37.1 µM in [7]; 34.8 µM in [8]; 33.3 µM in assay [9]; 33.8 µM in assay [10]; 33.5 µM in assay [11].
With `O=S(=O)(O)c1cc(N=[N+]([O-])c2cc(S(=O)(=O)O)c3ccccc3c2)cc2ccccc12`, the TGI in assay [1], in [2], in [3], in assay [5], in assay [6] and in assay [7] was more than 100 µM in each case. Besides, the TGI in assay [8], in assay [9], in assay [10] and in assay [11] was more than 100 µM throughout.
As for `O=C(O)C(O)C(O)C(O)C(=O)CO` (stereo not drawn), the TGI in assay [1], in assay [2], in assay [3], in assay [4], in assay [5] and in [6] was more than 100 µM in each case. Also, the TGI in assay [7], in assay [8], in assay [9], in assay [10] and in assay [11] was more than 100 µM in each case.
In the case of `CCCSc1ccc2[nH]c(N3C(=O)/C(=C/c4cc(OC)c(OC)c(OC)c4)N=C3c3ccccc3)cc2c1`, the TGI is more than 37.5 µM in [1]; more than 35.3 µM in assay [2]; more than 19.2 µM in assay [3]; more than 37.5 µM in [4]; more than 37.5 µM in [5]; more than 37.5 µM in assay [6]. In addition, the TGI was more than 30.8 µM in assay [7]; more than 37.5 µM in [8]; more than 37.5 µM in assay [9]; 37 µM in [10]; more than 30.2 µM in assay [11].
Turning to `O=C1/C(=C\c2ccc(F)cc2)CCOc2c1ccc1ccccc21`, the TGI was 42.3 µM in [1]; more than 31.1 µM in assay [2]; 63.8 µM in [3]; more than 47.8 µM in assay [4]; 60.7 µM in assay [5]; more than 100 µM in [6]. For the same molecule, the TGI was 82.7 µM in [7]; 51.9 µM in assay [8]; 97.9 µM in [9]; more than 100 µM in assay [10]; more than 100 µM in assay [11].
On to `COc1cc2c(cc1C)NC(=O)/C2=C/c1c(Cl)n(-c2ccccc2)c2ccccc12`, for which the TGI is more than 100 µM in assay [1]; more than 100 µM in assay [2]; 63.7 µM in [3]; 33.8 µM in [4]; more than 100 µM in [5]; 67.3 µM in [6]. The TGI in [7] is 63.1 µM; in assay [8], more than 100 µM; in [9], 30.4 µM; in assay [10], 40.4 µM; in assay [11], 18.5 µM.
Turning to `CCCN1C(=O)CSC1=Nc1ccc2cc3ccc(N=C4SCC(=O)N4CCC)cc3nc2c1`, the GI50 in assay [1] was more than 100 µM; in assay [2], 52.2 µM; in [4], more than 100 µM; in assay [5] it was 32.1 µM; in assay [6], more than 100 µM; in [8] it was 77.6 µM. For the same molecule, the GI50 in assay [9] is 66.3 µM; in [10] it was 18.2 µM; in assay [11], more than 100 µM. The TGI is more than 100 µM in assay [1]; more than 100 µM in [2]; more than 100 µM in assay [4]; 90.6 µM in assay [5]; more than 100 µM in assay [6]; more than 100 µM in assay [8]. Also, the TGI in assay [9], in assay [10] and in assay [11] was more than 100 µM each time.
`CCOC(=O)C(=O)NCCCN1CCOCC1`: the TGI in [1], in assay [2], in assay [3], in assay [4], in [5] and in [6] was more than 100 µM throughout. Besides, the TGI in [7], in assay [9] and in assay [11] was more than 100 µM throughout.
On to `O=C1CC2(CCC(O)(c3cccs3)C(C(=O)c3cccs3)C2)C(=O)c2ccccc2N1` (stereo not drawn), for which the TGI in assay [1], in assay [2], in assay [3], in assay [4], in [5] and in assay [6] was more than 100 µM in each case. The TGI in assay [7] was more than 100 µM; in assay [8], more than 100 µM; in [9], 46.6 µM; in assay [10], more than 100 µM; in assay [11], more than 100 µM.
Turning to `Nc1ccc(-c2nc3cc(F)ccc3s2)cc1CO`, the TGI in assay [1] was more than 100 µM; in assay [2], more than 100 µM; in [3], 52.1 µM; in assay [4] it was more than 100 µM; in assay [6], more than 100 µM; in assay [7], more than 100 µM. The TGI is 19.7 µM in [8], more than 100 µM in assay [9], more than 100 µM in [10] and more than 100 µM in assay [11].
For `CC(=O)c1ccc2c(c1)N(CCCN1CCN(CCO)CC1)c1ccccc1C2`, the TGI in assay [1] is 32.1 µM; in [2], 30.1 µM; in assay [3] it was 30.3 µM; in assay [4], 35.2 µM; in assay [5], 29.1 µM; in assay [6] it was 28.8 µM. For the same molecule, the TGI was determined as 28.3 µM in assay [7], 31 µM in assay [9], 25.9 µM in assay [10] and 31.8 µM in assay [11].
Consider `COC(=S)OC1CC(n2cnc3c(N)ncnc32)OC1CO[Si](C)(C)C(C)(C)C` (stereo not drawn), for which the TGI in [1] was 65.4 µM; in assay [2], more than 100 µM; in [3], 32.8 µM; in [4], more than 100 µM; in [5] it was more than 100 µM; in [6], 49.8 µM. In addition, the TGI in assay [7] was 43.3 µM; in assay [8], 44.8 µM; in assay [9], 48.1 µM; in assay [10], 88.8 µM; in [11], 39.8 µM.
As for `Nc1cc(-c2ccc(Cl)cc2)nn1-c1nc2ccccc2nc1-c1ccccc1`, the TGI in assay [1], in [2], in assay [3], in assay [4], in assay [5] and in assay [6] was more than 100 µM in each case. The TGI in assay [7], in assay [8], in [9], in [10] and in assay [11] was more than 100 µM each time.
Consider `O=c1[nH]c(Nc2ccc(Cl)cc2)nc2nc[nH]c12`, for which the TGI in assay [1], in assay [3], in assay [5], in assay [6], in assay [7] and in assay [8] was more than 100 µM throughout. For the same molecule, the TGI in assay [9], in [10] and in assay [11] was more than 100 µM in each case.
For `COC(=O)C[C@H](COCc1ccccc1)NC(=O)C[C@H](COCc1ccccc1)NC(=O)OC(C)(C)C`, the TGI in assay [1] was 99.8 µM; in assay [2], more than 100 µM; in [3], 49.2 µM; in assay [4], more than 100 µM; in [6], more than 100 µM; in [7] it was more than 100 µM. Moreover, the TGI in assay [8] was 51.1 µM; in assay [10], 98.7 µM; in assay [11], more than 100 µM.
For `Cc1cnoc1NS(=O)(=O)c1ccc(Nc2nnc(/C=C/c3c(O)ccc4ccccc34)c(=O)n2N)cc1`, the TGI in assay [1] was 77.9 µM; in assay [2], 82.9 µM; in assay [3], more than 100 µM; in assay [4], more than 100 µM; in assay [6], 61.5 µM; in [7] it was 75.7 µM. Also, the TGI in assay [8] stood at 47.5 µM; in assay [10] it was 82 µM.
As to `COc1ccc(C2c3cc4c(cc3OC(O)(CO)C2C(=O)O)OCO4)cc1` (stereo not drawn) (tested in a mixture with another compound), the TGI in assay [1] is more than 100 µM; in assay [2], 40.2 µM; in [3], more than 100 µM; in assay [4], 57.8 µM; in assay [5], more than 100 µM; in assay [6] it was 35.6 µM. Further, the values for the TGI in assay [7], in assay [9] and in assay [11] were 29.1 µM, 36.3 µM and more than 100 µM, respectively.
With `CCC(C)C(NC(=O)C1CCCN1C(=O)C(CC(C)C)NC(=O)C(CC(C)C)NC(=O)C(N)CC(C)C)C(=O)NC(C(=O)NCC(=O)NC(CC(N)=O)C(=O)NC(CC(C)C)C(=O)NC(CC(C)C)C(=O)NC(CC(C)C)C(N)=O)C(C)C` (stereo not drawn) (H-LLLPIVGNLLL-NH2; configuration not given here), the TGI in assay [1], in assay [3], in assay [4], in assay [5], in assay [6] and in assay [7] was more than 50 µM in each case. The TGI in assay [8], in assay [10] and in assay [11] was more than 50 µM in each case.
For the molecule `CC(=O)Oc1ccc(CO)cc1OC(C)=O`, the TGI in assay [1], in [2], in assay [3], in assay [4], in [5] and in assay [6] was more than 100 µM throughout. Further, the TGI in assay [7], in assay [9] and in assay [11] was more than 100 µM throughout.
Regarding `Cc1ccccc1NC(=O)CC(=O)N1N=C(N2c3ccccc3Sc3ccccc32)CC1c1ccccc1` (stereo not drawn), the TGI in assay [1], in assay [3], in [4], in assay [5], in assay [6] and in [7] was more than 100 µM each time. The TGI in assay [9] and in assay [11] was more than 100 µM each time.
